Experimental data reported in US20040092532A1, “Use of p38 inhibitors for the treatment of smoke inhalation” (priority 2003, published 2004).

Experiments:
[1] = system: LTD4-induced hypertussive response and airway eosinophilia; test: LTD4-Induced Hypertussive Model (citric acid challenge); type: in vivo, guinea pigs; settings: oral 30 mg/kg b.i.d., inhaled LTD4 10 ug/ml for 1 minute, 72 hours after exposure
Description: The effects of the compound are then assessed on the hypertussive response that occurs 72 hours post aerosol exposure to antigen or LTD4 exposure. Treatment of the animals occurs with the drug prior and/or after antigen or LTD4 challenge, but not on the day of citric acid challenge. […] Similarly, inhalation of LTD4 (10 ug/ml for 1 minute) increased cough incidence and airway esoinophiles 72 hours after exposure.

[2] = system: antigen-induced hypertussive response to citric acid; test: Antigen-Induced Hypertussive Model (ovalbumin, citric acid challenge); type: in vivo; settings: sensitized guinea pigs exposed to inhaled ovalbumin
Description: The effects of the compound are then assessed on the hypertussive response that occurs 72 hours post aerosol exposure to antigen or LTD4 exposure. Treatment of the animals occurs with the drug prior and/or after antigen or LTD4 challenge, but not on the day of citric acid challenge. Inhalation of citric acid (CA; 0.4% for 1 minute) induced 11 to 15 coughs, during the exposure and 12-minute monitoring period in conscious guinea pigs.

[3] = system: citric acid-induced cough; test: Citric Acid Induced Cough Model (direct antitussive activity); type: in vivo; settings: inhaled citric acid-induced cough, conscious guinea pigs; FIG. 4
Description: The directed antitussive activity of the compound in question if first assessed, by a 10 to 30 minute pretreatment period by intraperitoneal injection or a 1 hour pretreatment period for oral administration. The animals (guinea pigs) are then subjected to an inhaled citric acid-induced cough challenge. Inhalation of citric acid (CA; 0.4% for 1 minute) induced 11 to 15 coughs, during the exposure and 12-minute monitoring period in conscious guinea pigs.

SMILES: COc1nccc(-c2c(-c3ccc(F)cc3)ncn2[C@H]2CC[C@H](O)CC2)n1 [Compound I, trans-1-(4-Hydroxycyclohexyl)-4-(4-fluorophenyl)-5-[(2methoxy)pyrimidin-4-yl]imidazole]
- LTD4-induced eosinophilia [1]: blocked the LTD4-induced esoinophilia
- cough response after LTD4 ([1]; FIG. 5): normalized the cough response
- airway eosinophilia ([2]; bronchoalveolar lavage): reduce airway eosinophilia
- hypertussive state (CA-induced cough incidence) ([2]; citric acid challenge): normalizes the hypertussive state
- direct antitussive effect [3]: no direct antitussive effect
